In brackets after ≈: the same amount, converted by molar mass. Several values for one entry are separate records, joined by “and”; a condition that tells them apart may be missing. Equal values may be shown once. Entries after “also recorded” stand apart in the source; their conditions may differ. Read-outs that look alike come from different tables or passages of the source. Each block holds one molecule with its values, some of them ahead of it. Non-standard residues stand in square brackets, D forms with d. Residues, ends and D or L forms follow the SMILES beside them.
Key:
[1] = test system: human artery wall cell cocultures; experiment: Lipoproteins from mice given peptide by gavage tested in human artery wall cell cocultures (monocyte chemotactic activity)
[2] = Solubility in PBS; type: physicochemical
Experimental: The peptides were purified on a preparative Vydac C4 column by reversed-phase (RP)-HPLC using water (with 0.1% trifluoroacetic acid) and acetonitrile (0.1% trifluoroacetic acid). The purity and the retention times of the peptides were determined on an analytical Vydac C18 column using a gradient of 25%-58% acetonitrile in water containing 0.1% TFA. The purity of these peptides was also confirmed by mass spectrometry. The mass was in agreement with the calculated molecular weight. Although both the 3F peptides and 4F have additional Phe residues compared to 2F, the retention times of these peptides on the C18 column are not very different (˜22 min). A sudden increase in the retention time is apparent with 5F, 6F and 7F (˜26 min). With increasing number of Phe residues, the solubility of these peptides in PBS decreases.

[3] = Surface pressure measurements: monolayer exclusion pressure; type: physicochemical; details: EPC monolayer; reproducibility ± 1 dyn/cm
Experimental: An insoluble monolayer of egg phosphatidylcholine (EPC) was spread at the air-water interface in a Teflon dish at room temperature to give an initial surface pressure (πi) in the range of 5–45 dyn/cm. A solution of peptides in PBS containing 1.5M Gdn. HCl was carefully injected in to the subphase to give a final concentration of 50 μg/dL. The Gdn. HCl was diluted in the subphase to a final concentration of ≦1 mM to allow the peptides to renature. The subphase was stirred continuously and the increase in EPC monolayer surface pressure (Δπ) was recorded until a steady state value was obtained. The value of the initial surface pressure (πi) at which the peptides no longer penetrate the EYPC monolayer i.e. the exclusion pressure (πe), was calculated by extrapolating the πi vs Δπ linear regression fit to Δπ=0 dyn/cm.

[4] = Circular dichroism, percent helicity; type: physicochemical; details: for Percent Helicity PBS: 11 μM peptide in PBS; for Percent Helicity DMPC: 11 μM peptide, Peptide: DMPC 1:20 (mol/mol)
Experimental: Briefly, spectra were obtained using a cell with a 0.1 cm path length and measurements were taken every nm from 260 nm to 190 nm at 25° C. All the CD spectra were signal averaged by adding four scans, base line corrected and smoothed. Peptide solutions in PBS, pH 7.4, were used at a concentration of 11 μM. Peptide-DMPC complexes (1:20 mol:mol) were used to determine the effect of lipid binding on the helicity of these peptides. These complexes were prepared by adding the appropriate volume of peptide solution to DMPC multilamellar vesicles. DMPC multilamellar vesicles were prepared as follows: A known amount of lipid was dissolved in ethanol and the solvent was removed by evaporating slowly under a thin stream of nitrogen. Residual solvent was removed by storing the lipid film under vacuum overnight. An appropriate volume of PBS, pH 7.4 was added to the thin lipid film to give the required final concentration of DMPC.

[5] = DSC, chain melting transition of DMPC; type: physicochemical; details: DMPC/peptide 100:1 (mol/mol); for TCM(° C.): 1.5 mM DMPC, chain melting transition temperature; for ΔHCM (kcals/mol): enthalpy of the transition; for ΔT1/2 (° C.): width at half maximum of the transition
Experimental: (§1) A known amount of phospholipid was dissolved in chloroform. For one set of samples, peptide was dissolved in methanol and added to a solution of DiPoPE in chloroforn/methanol (2:1, v:v). For both, pure lipid samples and the organic solutions of lipid and peptide, solvent was removed under a slow stream of nitrogen. Residual solvent was removed under vacuum. […] For DMPC, four consecutive scans with a 60 minute equilibration time between scans were taken. DSC thermograms were analyzed using the software provided by MicroCal Inc., Amherst, Mass., and Origin, version 5.0.
The effect of these 18A analogues on the chain melting transition of multilamellar vesicles of DMPC was studied by DSC using peptide-lipid mixtures at 100:1 lipid/peptide molar ratio.

[6] = DSC, bilayer to hexagonal phase transition of DiPoPE; type: physicochemical; details: heating scan rate 37°/h
Experimental: as §1
In the current study we prepared the peptide-lipid mixtures in two ways. One was by adding the peptide in organic solvent to the lipid in organic solvent followed by depositing the material as a film and subsequently hydrating with buffer. In the other method, the peptide and lipid were mixed after each was hydrated separately. If the mixture comes to equilibrium prior to the DSC analysis, it should not matter how the peptide and lipid are originally mixed. However, membrane systems can equilibrate slowly, in which case there may be more peptide in the lipid when it was incorporated at high concentrations into the lipid film.

[7] = Right angle light scattering, dissolution of EPC MLVs; type: physicochemical; details: 105 μM EPC, equimolar peptide; for clarification of EPC MLVs: 25° C., 30 min
Experimental: EPC MLVs were prepared by evaporating a solution of EPC (Avanti Polar, AL) under nitrogen and hydrating the lipid film with phosphate-buffered saline (pH 7.4). […] Turbidity clarification was monitored for 30 min.

[8] = test system: human artery wall cell cocultures; experiment: LDL-induced monocyte chemotactic activity with the homologous series of peptides (Example 3); type: cell-based; details: peptide at 100 μg/ml, LDL 250 μg protein/ml, 8 h
Experimental: Microtitre plates were treated with 0.1% gelatin at 37° C. overnight. HASMC were added at a confluent density of 1×10^5 cells/cm^2. […] HAEC were subsequently added at 2×10^5 cells/cm^2 and were allowed to grow, forming a complete monolayer of confluent HAEC in two days. In all experiments, HAEC and autologous HASMC (from the same donor) were used at passage levels of four to six. […] The cocultures were treated with native LDL(250 μg protein/ml) or presence of HDL (350 μg protein/ml) or peptides for 8 h.

[9] = mouse, in vivo
[10] = test system: Human aortic wall cocultures; experiment: LDL plus peptide in vitro in human aortic wall cocultures, monocyte chemotactic activity (Example 2); type: cell-based; details: control LDL 250 μg/ml plus varying amounts of peptide
Experimental: Human aortic wall cocultures were incubated with medium alone (LDL, NO CELLS or CELLS, NO LDL, see FIG. 9), control LDL from normal subjects at 250 μg/ml (LDL) and LDL plus control HDL from normal subjects at 350 μg/ml (+HDL). Other cocultures were incubated With the control LDL together with varying amounts (micrograms shown on the abscissa) of either D-2F, or L-2F (third panel from the left, 2F) or D-37-pA or L-37pA (last panel on the right, 37pA). The data represent mean±SD of values obtained from quadruplicate cocultures.

[11] = 5F, 100 μg per animal by oral gavage, LDL receptor null mice, blood after 6 hrs

Molecule: CC(=O)N[C@H](CC(=O)O)C(=O)N[C@H](Cc1c[nH]c2ccccc12)C(=O)N[C@H](CC(C)C)C(=O)N[C@H](CCCCN)C(=O)N[C@H](C)C(=O)N[C@H](Cc1ccccc1)C(=O)N[C@H](Cc1ccc(O)cc1)C(=O)N[C@H](CC(=O)O)C(=O)N[C@H](CCCCN)C(=O)N[C@@H](C(=O)N[C@H](Cc1ccccc1)C(=O)N[C@H](CCC(=O)O)C(=O)N[C@H](CCCCN)C(=O)N[C@H](Cc1ccccc1)C(=O)N[C@H](CCCCN)C(=O)N[C@H](CCC(=O)O)C(=O)N[C@H](Cc1ccccc1)C(=O)N[C@H](Cc1ccccc1)C(N)=O)C(C)C [Peptide D-5F, Ac-D-W-L-K-A-F-Y-D-K-V-F-E-K-F-K-E-F-F-NH2] (Ac-[dD][dW][dL][dK][dA][dF][dY][dD][dK][dV][dF][dE][dK][dF][dK][dE][dF][dF]-NH2)
HDL protective capacity [1, 11]: markedly more protective | LDL resistance to oxidation [1, 11]: highly resistant to oxidation | monocyte chemotactic activity induced by mouse VLDL/IDL fraction ([1]; 50 micrograms by gavage, 3 hour time point): significantly less monocyte chemotactic activity | protection of control LDL by mouse HDL ([1]; 50 micrograms by gavage, HDL taken after 6 hours): slightly less | monocyte chemotactic activity induced by mouse LDL ([1]; 50 micrograms by gavage, after 3 h and 6 h): significantly less monocyte chemotactic activity

Solubility [2]: 1300 µg/mL (≈ 563 µM) | solubility ([2]; Solubility (mg/ml)): 1250 to 1400 µg/mL (≈ 541 to 606 µM) | Monolayer Exclusion Pressure(πc) [3]: 40 dyn/cm | Percent Helicity PBS [4]: 45% | Percent Helicity DMPC [4]: 44% | TCM(° C.) [5]: 23.2 °C | ΔHCM (kcals/mol) [5]: 5.3 kcals/mol | ΔT1/2 (° C.) [5]: 0.4 °C
Molecule: CC(=O)N[C@@H](CC(=O)O)C(=O)N[C@@H](Cc1c[nH]c2ccccc12)C(=O)N[C@@H](Cc1ccccc1)C(=O)N[C@@H](CCCCN)C(=O)N[C@@H](C)C(=O)N[C@@H](Cc1ccccc1)C(=O)N[C@@H](Cc1ccc(O)cc1)C(=O)N[C@@H](CC(=O)O)C(=O)N[C@@H](CCCCN)C(=O)N[C@H](C(=O)N[C@@H](C)C(=O)N[C@@H](CCC(=O)O)C(=O)N[C@@H](CCCCN)C(=O)N[C@@H](Cc1ccccc1)C(=O)N[C@@H](CCCCN)C(=O)N[C@@H](CCC(=O)O)C(=O)N[C@@H](C)C(=O)N[C@@H](Cc1ccccc1)C(N)=O)C(C)C [Peptide 4F, Ac-D-W-F-K-A-F-Y-D-K-V-A-E-K-F-K-E-A-F-NH2]
shift in TH of DiPoPE with mol fraction of peptide [6]: more rapid increase is observed at lower peptide concentrations | time for 50% clearance of the turbidity of EPC MLVs [7]: shortest | clarification of EPC MLVs [7]: most effective in clarifying EPC MLVs with activity similar to that of Triton X-100 | inhibition of LDL-induced monocyte chemotaxis [8]: significant and similar inhibition

Monolayer Exclusion Pressure(πc) [3]: 45 dyn/cm | Percent Helicity PBS [4]: 58% | Percent Helicity DMPC [4]: 68% | TCM(° C.) [5]: 23.2 °C | ΔHCM (kcals/mol) [5]: 4.5 kcals/mol | ΔT1/2 (° C.) [5]: 0.5 °C | shift in TH of DiPoPE with mol fraction of peptide [6]: do not significantly affect TH
Molecule: Ac-DWFKAFYDKFFEKFKEFF-NH2 [Peptide 7F, Ac-D-W-F-K-A-F-Y-D-K-F-F-E-K-F-K-E-F-F-NH2]
initial lag period in EPC MLV clearance [7]: ~300 s | time for 50% clearance of the turbidity of EPC MLVs [7]: longest time | clarification of EPC MLVs [7]: clarified the EPC MLVs to a similar extents | inhibition of LDL-induced monocyte chemotaxis [8]: significantly less effective than peptides 4F, 5F and 6F

Molecule: H-DWLKAFYDKVAEKLKEAF-OH [Peptide 18A, D-W-L-K-A-F-Y-D-K-V-A-E-K-L-K-E-A-F, reference compound]
solubility ([2]; in PBS, read-out: Solubility): > 2000 µg/mL | Monolayer Exclusion Pressure(πc) [3]: 30 dyn/cm

Molecule: Human apo A-I: Human apo A-I is a 243 residue protein, major protein constituent of HDL
Solubility [2]: >2000 µg/mL | Monolayer Exclusion Pressure(πc) [3]: 34 dyn/cm | clarification of EPC MLVs [7]: does not clarify EPC MLVs | Max. % in plasma [9]: 23.7% | Time (h) to max. CPM ([9]; ip): 3.61 h | T½ ([9]; ip): 15.6 h

Molecule: H-DWLKAFYDKVAEKLKEAFPDWLKAFYDKVAEKLKEAF-OH [Peptide L-37pA, reference compound]
monocyte chemotactic activity induced by LDL treated with peptide in vitro [10]: significantly different from LDL

Molecule: Ac-DWFKAFYDKVAEKLKEAF-NH2 [3F^3]
solubility ([2]; in PBS, read-out: Solubility): 1250 to 1400 µg/mL

Molecule: Ac-DWLKAFYDKVFEKFKEFF-NH2 [Peptide L-5F, Ac-D-W-L-K-A-F-Y-D-K-V-F-E-K-F-K-E-F-F-NH2]
HDL protective capacity [1, 11]: but not L-5F rendered the HDL markedly more protective

Molecule: H-DWLKAFYDKVAEKLKEAFPDWLKAFYDKVAEKLKEAF-OH [Peptide 37pA, DWLKAFYDKVAEKLKEAFPDWLKAFYDKVAEKLKEAF, reference compound]
solubility ([2]; in PBS, read-out: Solubility): > 2000 µg/mL | Monolayer Exclusion Pressure(πc) [3]: 40 dyn/cm and 41 dyn/cm

Molecule: Ac-DWLKAFYDKVAEKLKEAF-NH2 [Peptide L-2F, Ac-D-W-L-K-A-F-Y-D-K-V-A-E-K-L-K-E-A-F-NH2]
monocyte chemotactic activity induced by LDL treated with peptide in vitro [10]: significantly different from LDL; also recorded: equally able to block LDL oxidation and LDL-induced monocyte chemotactic activity | monocyte chemotaxis induced by LDL from mice given 2F by gavage ([1]; D versus L form by gavage): readily induced monocyte chemotaxis

Solubility [2]: 30 µg/mL | solubility ([2]; Solubility (mg/ml)): 30 to 100 µg/mL | Monolayer Exclusion Pressure(πc) [3]: 45 dyn/cm and 46 dyn/cm | Percent Helicity PBS [4]: 67% | Percent Helicity DMPC [4]: 50% | TCM(° C.) [5]: 23.1 °C | ΔHCM (kcals/mol) [5]: 4.0 kcals/mol | ΔT1/2 (° C.) [5]: 0.5 °C | shift in TH of DiPoPE with mol fraction of peptide [6]: do not significantly affect TH
Molecule: Ac-DWLKAFYDKFFEKFKEFF-NH2 [Peptide 6F, Ac-D-W-L-K-A-F-Y-D-K-F-F-E-K-F-K-E-F-F-NH2]
clarification of EPC MLVs [7]: clarified the EPC MLVs to a similar extents | inhibition of LDL-induced monocyte chemotaxis [8]: significant and similar inhibition

— US7144862B2, “Orally administered peptides to ameliorate atherosclerosis” (The Regents of the University of California, priority 2000, dated 2006)
